The target in experiment [1] is T1, LZK (Homo sapiens, UniProt O43283).
T1 construct: 10 nM LZK, catalytic domain, Carna Biosiences in assay buffer; purchased Carna Biosciences ('Carna Biosiences' [sic])
T1 sequence (O43283 168-409 limits assumed): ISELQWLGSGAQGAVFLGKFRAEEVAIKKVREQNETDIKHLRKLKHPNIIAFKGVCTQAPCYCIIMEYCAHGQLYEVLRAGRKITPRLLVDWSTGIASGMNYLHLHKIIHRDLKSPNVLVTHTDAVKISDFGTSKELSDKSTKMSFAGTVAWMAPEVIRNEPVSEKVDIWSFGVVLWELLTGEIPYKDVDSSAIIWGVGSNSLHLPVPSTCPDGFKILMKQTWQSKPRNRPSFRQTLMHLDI
Nature of the experiment: LZK biochemical assay (TR-FRET, MKK7 phosphorylation). An outline of the steps: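 LZK catalytic domain (10 nM) phosphorylates His-MKK7 (15 nM) with 15 µM ATP, all final, for 90 min at RT in HEPES buffer pH 7.5 with MgCl2. Phospho-T275/S277 detected by TR-FRET (Eu anti-phospho donor, XL665 anti-His acceptor) after 16 h at 32 °C in EDTA stop buffer. Inhibition lowers the 665/Eu ratio.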
(TR-FRET usually uses a lanthanide donor and a delayed reading to cut background.)

The target in experiment [2] is T2, DLK (Homo sapiens, UniProt Q12852).
T2 construct: 10 nM DLK, catalytic domain, Carna Biosiences; purchased Carna Biosciences ('Carna Biosiences' [sic])
T2 sequence (Q12852 125-366 limits assumed): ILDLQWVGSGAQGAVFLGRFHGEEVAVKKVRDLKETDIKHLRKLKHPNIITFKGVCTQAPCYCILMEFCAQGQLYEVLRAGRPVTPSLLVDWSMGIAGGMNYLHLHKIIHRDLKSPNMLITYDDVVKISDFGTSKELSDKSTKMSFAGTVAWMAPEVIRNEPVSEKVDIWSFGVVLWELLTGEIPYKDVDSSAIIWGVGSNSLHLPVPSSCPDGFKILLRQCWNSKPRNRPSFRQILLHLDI
Description: DLK biochemical assay (TR-FRET, MKK7 phosphorylation). An outline of the steps: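 DLK catalytic domain (10 nM) phosphorylates His-MKK7 (15 nM) at 60 μM ATP for 90 min at RT in pH 7.5 Hepes buffer (final concentrations). Phospho-T275/S277 is detected by TR-FRET (Eu anti-phospho donor, XL665 anti-His acceptor) after 16 h at 37° C (1536 format) or 4° C (384 format).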

SMILES strings stand for the structures.

One may read the IC50 as the concentration at which inhibition is half-maximal. A higher IC50 goes with lower potency. For the compound `CC(C)(O)c1cccc(-c2cc(-c3cnn(C(c4ccc(C(F)(F)F)nc4)C4CCOCC4)c3)cn3nc(N)nc23)c1` (single isomer, unassigned) [II-11, 2-{3-[2-Amino-6-(1-{tetrahydro-2H-pyran-4-yl[6-(trifluoromethyl)pyridin-3-yl]methyl}-1H-pyrazol-4-yl)[1,2,4]triazolo[1,5-a]pyridin-8-yl]phenyl}propan-2-ol], the IC50 in experiment [1] worked out at 3 nM; in experiment [2], 1.4 nM.
Regarding `CC(C)(O)c1cccc(-c2cc(-c3cnn(C(c4ccc(C(F)(F)F)nc4)C4CCOCC4)c3)cn3nc(N)nc23)c1` (single isomer, unassigned) [II-12, 2-{3-[2-Amino-6-(1-{tetrahydro-2H-pyran-4-yl[6-(trifluoromethyl)pyridin-3-yl]methyl}-1H-pyrazol-4-yl)[1,2,4]triazolo[1,5-a]pyridin-8-yl]phenyl}propan-2-ol], the IC50 in experiment [1] amounted to 1.2 nM; in experiment [2], 0.6 nM.
For the compound `CS(=O)(=O)c1cccc(-c2cc(-c3cnn(C(c4ccc(C(F)(F)F)nc4)C4CCOCC4)c3)cn3nc(N)nc23)c1` (single isomer, unassigned) [II-14, 8-[3-(Methylsulfonyl)phenyl]-6-(1-{tetrahydro-2H-pyran-4-yl[6-(trifluoromethyl)pyridin-3-yl]methyl}-1H-pyrazol-4-yl)[1,2,4]triazolo[1,5-a]pyridin-2-amine], the IC50 in experiment [1] stood at 1.3 nM; in experiment [2] it was 0.6 nM.
The corresponding values for `CS(=O)(=O)c1cccc(-c2cc(-c3cnn(C(c4ccc(C(F)(F)F)nc4)C4CCOCC4)c3)cn3nc(N)nc23)c1` (single isomer, unassigned) [II-15, 8-[3-(Methylsulfonyl)phenyl]-6-(1-{tetrahydro-2H-pyran-4-yl[6-(trifluoromethyl)pyridin-3-yl]methyl}-1H-pyrazol-4-yl)[1,2,4]triazolo[1,5-a]pyridin-2-amine] are 2.7 nM and 0.9 nM.
In the case of `CCS(=O)(=O)c1cccc(-c2cc(-c3cnn(C(c4ccc(C(F)(F)F)nc4)C4CCOCC4)c3)cn3nc(N)nc23)c1` (single isomer, unassigned) [II-17, 8-[3-(Ethylsulfonyl)phenyl]-6-(1-{tetrahydro-2H-pyran-4-yl[6-(trifluoromethyl)pyridin-3-yl]methyl}-1H-pyrazol-4-yl)[1,2,4]triazolo[1,5-a]pyridin-2-amine], the values for the IC50 in experiment [1] and in experiment [2] were 11 nM and 2.1 nM, respectively.
Regarding `CCS(=O)(=O)c1cccc(-c2cc(-c3cnn(C(c4ccc(C(F)(F)F)nc4)C4CCOCC4)c3)cn3nc(N)nc23)c1` (single isomer, unassigned) [II-18, 8-[3-(Ethylsulfonyl)phenyl]-6-(1-{tetrahydro-2H-pyran-4-yl[6-(trifluoromethyl)pyridin-3-yl]methyl}-1H-pyrazol-4-yl)[1,2,4]triazolo[1,5-a]pyridin-2-amine], the IC50 was 1.5 nM in experiment [1] and 0.3 nM in experiment [2].
Regarding `Nc1nc2c(-c3cccc(S(=O)(=O)C(F)(F)F)c3)cc(-c3cnn(C(c4ccc(C(F)(F)F)nc4)C4CCOCC4)c3)cn2n1` (single isomer, unassigned) [II-20, 6-(1-{Tetrahydro-2H-pyran-4-yl[6-(trifluoromethyl)pyridin-3-yl]methyl}-1H-pyrazol-4-yl)-8-{3-[(trifluoromethyl)sulfonyl]phenyl}[1,2,4]triazolo[1,5-a]pyridin-2-amine], the IC50 was found to be 140 nM in experiment [1] and 71 nM in experiment [2].
In the case of `Nc1nc2c(-c3cccc(S(=O)(=O)C(F)(F)F)c3)cc(-c3cnn(C(c4ccc(C(F)(F)F)nc4)C4CCOCC4)c3)cn2n1` (single isomer, unassigned) [II-21, 6-(1-{Tetrahydro-2H-pyran-4-yl[6-(trifluoromethyl)pyridin-3-yl]methyl}-1H-pyrazol-4-yl)-8-{3-[(trifluoromethyl)sulfonyl]phenyl}[1,2,4]triazolo[1,5-a]pyridin-2-amine], the IC50 in experiment [1] turned out to be 14 nM; in experiment [2], 7.6 nM.
The corresponding values for `CN(C)c1cccc(-c2cc(-c3cnn(C(c4ccc(C(F)(F)F)nc4)C4CCOCC4)c3)cn3nc(N)nc23)c1` (single isomer, unassigned) [II-23, 8-[3-(Dimethylamino)phenyl]-6-(1-{tetrahydro-2H-pyran-4-yl[6-(trifluoromethyl)pyridin-3-yl]methyl}-1H-pyrazol-4-yl)[1,2,4]triazolo[1,5-a]pyridin-2-amine] are 9.2 nM and 4.5 nM.
Consider `CN(C)c1cccc(-c2cc(-c3cnn(C(c4ccc(C(F)(F)F)nc4)C4CCOCC4)c3)cn3nc(N)nc23)c1` (single isomer, unassigned) [II-24, 8-[3-(Dimethylamino)phenyl]-6-(1-{tetrahydro-2H-pyran-4-yl[6-(trifluoromethyl)pyridin-3-yl]methyl}-1H-pyrazol-4-yl)[1,2,4]triazolo[1,5-a]pyridin-2-amine], for which the IC50 in experiment [1] worked out at 2.3 nM; in experiment [2] it was 0.5 nM.
For `CCC(c1ccc(C(F)(F)F)nc1)n1cc(-c2cc(-c3ccnc(OC(F)F)c3)c3nc(N)nn3c2)cn1` (single isomer, unassigned) [II-26, 8-[2-(Difluoromethoxy)pyridin-4-yl]-6-(1-{1-[6-(trifluoromethyl)pyridin-3-yl]propyl}-1H-pyrazol-4-yl)[1,2,4]triazolo[1,5-a]pyridin-2-amine], the results for the IC50 in experiment [1] and in experiment [2] were 150 nM and 210 nM, respectively.
For `CCC(c1ccc(C(F)(F)F)nc1)n1cc(-c2cc(-c3ccnc(OC(F)F)c3)c3nc(N)nn3c2)cn1` (single isomer, unassigned) [II-27, 8-[2-(Difluoromethoxy)pyridin-4-yl]-6-(1-{1-[6-(trifluoromethyl)pyridin-3-yl]propyl}-1H-pyrazol-4-yl)[1,2,4]triazolo[1,5-a]pyridin-2-amine], the IC50 in experiment [1] turned out to be 55 nM; in experiment [2] it was 30 nM.
The corresponding values for `CC(C)C(c1ccc(C(F)(F)F)nc1)n1cc(-c2cc(-c3ccnc(C(F)(F)F)c3)n3nc(N)nc3c2)cn1` (single isomer, unassigned) [II-29, 7-(1-{2-Methyl-1-[6-(trifluoromethyl)pyridin-3-yl]propyl}-1H-pyrazol-4-yl)-5-[2-(trifluoromethyl)pyridin-4-yl][1,2,4]triazolo[1,5-a]pyridin-2-amine] are 97 nM and 120 nM.
For `CC(C)C(c1ccc(C(F)(F)F)nc1)n1cc(-c2cc(-c3ccnc(C(F)(F)F)c3)n3nc(N)nc3c2)cn1` (single isomer, unassigned) [II-30, 7-(1-{2-Methyl-1-[6-(trifluoromethyl)pyridin-3-yl]propyl}-1H-pyrazol-4-yl)-5-[2-(trifluoromethyl)pyridin-4-yl][1,2,4]triazolo[1,5-a]pyridin-2-amine], in that order: 6.7 nM and 8.7 nM.
`CCC(c1ccc(C(F)(F)F)nc1)n1cc(-c2cc(-c3ccnc(C4(F)CC4)c3)n3nc(N)nc3c2)cn1` (single isomer, unassigned) [II-32, 5-[2-(1-Fluorocyclopropyl)pyridin-4-yl]-7-(1-{1-[6-(trifluoromethyl)pyridin-3-yl]propyl}-1H-pyrazol-4-yl)[1,2,4]triazolo[1,5-a]pyridin-2-amine]: the IC50 in experiment [1] came out at 16 nM; in experiment [2], 66 nM.
The corresponding values for `CCC(c1ccc(C(F)(F)F)nc1)n1cc(-c2cc(-c3ccnc(C4(F)CC4)c3)n3nc(N)nc3c2)cn1` (single isomer, unassigned) [II-33, 5-[2-(1-Fluorocyclopropyl)pyridin-4-yl]-7-(1-{1-[6-(trifluoromethyl)pyridin-3-yl]propyl}-1H-pyrazol-4-yl)[1,2,4]triazolo[1,5-a]pyridin-2-amine] are 7.6 nM and 17 nM.
As for `Nc1nc2cc(-c3cnn(C(c4ccc(C(F)(F)F)nc4)C4CCOCC4)c3)cc(-c3ccnc(C(F)(F)F)c3)n2n1` (single isomer, unassigned) [II-35, 7-(1-{Tetrahydro-2H-pyran-4-yl[6-(trifluoromethyl)pyridin-3-yl]methyl}-1H-pyrazol-4-yl)-5-[2-(trifluoromethyl)pyridin-4-yl][1,2,4]triazolo[1,5-a]pyridin-2-amine], the IC50 in experiment [1] is 44 nM; in experiment [2] it was 63 nM.
The corresponding values for `Nc1nc2cc(-c3cnn(C(c4ccc(C(F)(F)F)nc4)C4CCOCC4)c3)cc(-c3ccnc(C(F)(F)F)c3)n2n1` (single isomer, unassigned) [II-36, 7-(1-{Tetrahydro-2H-pyran-4-yl[6-(trifluoromethyl)pyridin-3-yl]methyl}-1H-pyrazol-4-yl)-5-[2-(trifluoromethyl)pyridin-4-yl][1,2,4]triazolo[1,5-a]pyridin-2-amine] are 7.9 nM and 6.3 nM.
